Test results from PubChem BioAssay AID330 (DTP/NCI, 2004).
Where “and” joins values, the source holds several entries; their conditions need not be identical. Equal entries are not always repeated. Toxic doses and inconclusive results are not listed. How the source made its calls: active means survival T/C of 150% or more; inactive means T/C below 125% in these data.

Test system: P388 leukemia ip, CD2F1 mice, survival T/C
Assay: NCI In Vivo Anticancer Drug Screen. Data for tumor model P388 Leukemia (intraperitoneal) in CD2F1 (CDF1) mice
Settings: endpoint: median survival time, higher = longer survival
How it was run: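 Mice carrying the transplanted tumor received test compound or vehicle. Survival was recorded in each group, and the value is the treated-group measurement divided by that of the vehicle-treated control group.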

[1] = dose: 50.0 mg/kg/injection, schedule: Q01DX009 (ip), vehicle: saline
[2] = dose: 100.0 mg/kg/injection, schedule: Q01DX009 (ip), vehicle: saline
[3] = dose: 200.0 mg/kg/injection, schedule: Q01DX009 (ip), vehicle: saline
[4] = dose: 60.0 mg/kg/injection, schedule: Q01DX005 (ip), vehicle: saline with Tween-80
[5] = dose: 120.0 mg/kg/injection, schedule: Q01DX005 (ip), vehicle: saline with Tween-80
[6] = dose: 60.0 mg/kg/injection, schedule: Q01DX005 (ip), vehicle: Klucel (hydroxypropylcellulose) (HPC)
[7] = dose: 120.0 mg/kg/injection, schedule: Q01DX005 (ip), vehicle: Klucel (hydroxypropylcellulose) (HPC)
[8] = dose: 240.0 mg/kg/injection, schedule: Q01DX005 (ip), vehicle: Klucel (hydroxypropylcellulose) (HPC)
[9] = dose: 100.0 mg/kg/injection, schedule: Q04DX003 (ip), vehicle: saline with Tween-80
[10] = dose: 200.0 mg/kg/injection, schedule: Q04DX003 (ip), vehicle: saline with Tween-80
[11] = dose: 400.0 mg/kg/injection, schedule: Q04DX003 (ip), vehicle: saline with Tween-80

Measured: T/C

COc1nccnn1
inactive: [1] 95 % of control | [2] 91 % of control | [3] 95 % of control | dose: 400.0 mg/kg/injection, schedule: Q01DX009 (ip), vehicle: saline 107 % of control

OCC1OC2C(NC(=S)N2c2ccccc2)C(O)C1O (configuration not stated)
inactive: [4] 101 % of control | [5] 98 % of control | dose: 240.0 mg/kg/injection, schedule: Q01DX005 (ip), vehicle: saline with Tween-80 104 % of control

C/C(CCn1[nH]c(=O)ccc1=O)=N\NS(=O)(=O)c1ccc(C)cc1
inactive: [4] 103 % of control | [5] 109 % of control | dose: 134.0 mg/kg/injection, schedule: Q01DX005 (ip), vehicle: saline with Tween-80 105 % of control

O=C(O)c1ccc2c(c1Sc1ccc(Cl)cc1)C(=O)c1ccccc1C2=O
inactive: [6] 100 % of control | [7] 90 % of control | [8] 99 % of control

O=[Se]([O][Sn]([O][Se](=O)c1ccccc1)([O][Se](=O)c1ccccc1)[c]1ccccc1)c1ccccc1 (configuration not stated)
inactive: dose: 25.0 mg/kg/injection, schedule: Q01DX009 (ip), vehicle: saline with Tween-80 104 % of control and 96 % of control | dose: 50.0 mg/kg/injection, schedule: Q01DX009 (ip), vehicle: saline with Tween-80 100 % of control and 103 % of control and 118 % of control | dose: 100.0 mg/kg/injection, schedule: Q01DX009 (ip), vehicle: saline with Tween-80 111 % of control and 121 % of control and 96 % of control

COc1nc(Nc2ccc(/C=C/c3ccc(Nc4nc(OC)nc(N(CCO)CCO)n4)cc3S(=O)(=O)O)c(S(=O)(=O)O)c2)nc(N(CCO)CCO)n1
inactive: dose: 100.0 mg/kg/injection, schedule: Q04DX003 (ip), vehicle: saline 98 % of control | dose: 200.0 mg/kg/injection, schedule: Q04DX003 (ip), vehicle: saline 98 % of control | dose: 400.0 mg/kg/injection, schedule: Q04DX003 (ip), vehicle: saline 103 % of control

CC(C)c1ccc(OC(=N)c2ccccc2)cc1
inactive: [9] 98 % of control | [10] 100 % of control | [11] 89 % of control

Nc1[nH]c(=O)[nH]c(=O)c1N=O
inactive: [6] 101 % of control and 96 % of control | [7] 101 % of control and 108 % of control | [8] 104 % of control and 98 % of control

CC(=O)NCNC(C)=O
inactive: [1] 100 % of control | [2] 97 % of control | [3] 108 % of control

CC(C)SC(=O)C[Si](C)(C)C
inactive: dose: 50.0 mg/kg/injection, schedule: Q04DX003 (ip), vehicle: saline with Tween-80 98 % of control and 101 % of control | [9] 101 % of control and 104 % of control | [10] 103 % of control and 105 % of control | [11] 98 % of control

CCC[CH2][Sn]([CH2]CCC)([S]C(C)=O)[S]C(C)=O
inactive: dose: 12.5 mg/kg/injection, schedule: Q01DX001 (ip), vehicle: Klucel (hydroxypropylcellulose) (HPC) 113 % of control | dose: 25.0 mg/kg/injection, schedule: Q01DX001 (ip), vehicle: Klucel (hydroxypropylcellulose) (HPC) 105 % of control | dose: 50.0 mg/kg/injection, schedule: Q01DX001 (ip), vehicle: Klucel (hydroxypropylcellulose) (HPC) 114 % of control

Cn1nc(-c2cccnc2)[n+]([O-])c2c(=O)n(C)c(=O)nc1-2
inactive: dose: 45.0 mg/kg/injection, schedule: Q01DX009 (ip), vehicle: saline with Tween-80 100 % of control | dose: 90.0 mg/kg/injection, schedule: Q01DX009 (ip), vehicle: saline with Tween-80 109 % of control | dose: 180.0 mg/kg/injection, schedule: Q01DX009 (ip), vehicle: saline with Tween-80 112 % of control

CCNSc1ccccc1
inactive: dose: 50.0 mg/kg/injection, schedule: Q01DX009 (ip), vehicle: Klucel (hydroxypropylcellulose) (HPC) 106 % of control

C=CCc1cc2c(cc1Cc1ccc(OC)cc1)OCO2
inactive: dose: 50.0 mg/kg/injection, schedule: Q01DX005 (ip), vehicle: distilled water + alcohol 109 % of control | dose: 100.0 mg/kg/injection, schedule: Q01DX005 (ip), vehicle: distilled water + alcohol 104 % of control | dose: 200.0 mg/kg/injection, schedule: Q01DX005 (ip), vehicle: distilled water + alcohol 109 % of control
